Experimental data from patent publication US20260159474A1, “Aminoindane Compounds and Compositions and Methods of Their Therapeutic Use” (Solvonis Therapeutics Ireland Holdings Limited, priority 2021, published 2026).
Where “and” joins values, the source holds several entries; their conditions need not be identical. Identical values can stand only once.

Test system: extracellular serotonin (5-HT) in the nucleus accumbens (NAcc)
Experiment: In vivo microdialysis in rat nucleus accumbens, serotonin
Design: species or system Sprague Dawley rats
Conditions: 7 mg/kg I.P.; for peak 5-HT level: baseline = 100%; for Serotonin (5-HT) level (% from baseline): rat NAcc
Description: Methods and Procedure: This study was conducted in compliance with previously described procedures to assure data integrity, adherence to GLP regulations, and standard preclinical study and surgery procedures. The in vivo microdialysis technique was applied to measure the over-time variations of DA, 5-HT, and NE extracellular (EC) concentrations in conscious, freely-moving Sprague Dawley rats. Levels of the neurotransmitters in microdialysis samples were determined using LC-MS/MS analysis. The experiment was also conducted with MDMA for comparative purposes.
As it relates to cannula implantation, the rats were anesthetized with isoflurane 4% in oxygen (2-2.5 L/min), then the isoflurane concentration 2-2.5% was maintained via a nose cone adapted to the stereotaxic apparatus. The rats were treated with meloxicam (0.2 mg/kg, subcutaneously, sc; Meloxidolor) and amoxicilline (150 mg/kg, sc, Betamox LA). The skull was then shaved and disinfected. Rats were then placed in a stereotaxic apparatus for small animals. One vertical guide cannula was inserted through a 1 mm hole drilled on the exposed skull. Coordinates, with respect to the bregma to target specific brain areas, followed indications from stereotaxic atlas of the rat brain. Specifically a guide cannula (MAB 4.12.IC, Agn Tho's AB, Lidinga, Sweden) was inserted in the NAcc (anteroposterior+1.6; lateral −1.6; dorsoventral −6.0). The guide cannula was then secured with dental cement and 2-4 screws. At the end of the surgery the animal was isolated in a single cage during recovery, for a period of at least one week, during which animal health conditions were checked twice daily and the weight recorded twice a week. Animals continued to be housed singly throughout the experiment. One day before the experiment the cannula stylet was removed and a microdialysis probe with a dialyzing length of 2 mm (MAB 4.12.2 Cu, Agn Tho's AB, Lidingo, Sweden) was inserted. Probes can be re-used 2 times for 2 experimental sessions after appropriate cleaning with fresh milliQ water.
Post-surgery, the rats were maintained in a heating chamber prior to waking up in order to avoid hypothermia that could be caused by anaesthesia. 5 mL of physiologic solution was subcutaneously administered immediately after surgery, and once/day for 2-3 days, if signs of dehydration are noticed. Meloxicam (Meloxidolor) 0.2 mg/kg was again administered subcutaneously the day after surgery as well as after 48 h after surgery together with Amoxicilline Long Acting (Betamox LA) 150 mg/kg. Health status and body weight was checked every day during the first week.
The animals were treated with the therapeutic compounds, and MDMA, or their vehicle (saline) according to a Latin square design over 5 separate experimental days (one day/week). The treatments were administered in a volume of 1 mL/kg intraperitoneally.
On the day of the experiment, each animal was taken into the laboratory in its home cage. Inlet tubing of the probe was attached to a dual quartz-lined two channel liquid swivel mounted on a low mass spring counterbalance arm which, in turn, was connected to a gas-tight syringe on a microinfusion pump. […] An equilibration period of about two hours of perfusion was allowed before collecting samples. Following the equilibration period, 4 basal samples were collected for each experimental animal followed by further 10 post-treatment samples. Samples were collected every 20 minutes (up to 3 hours and 20 minutes post-treatment) by means of a refrigerated auto-sampler (Univentor 820 Microsampler, AgnTho's, Sweden) maintained at +8 “C. At the end of all experimental sessions, 2 μL of 0.1% methylene blue solution was injected through the microdialysis probe, animals were euthanized, and their brains removed to confirm the correct probe-position.
As mentioned, the concentration of DA, 5-HT and NE in CSF samples were determined using an optimized method based on LC-MS/MS analysis. […]

| Structure (SMILES) | time at which 5-HT levels returned to baseline (rat NAcc microdialysis) [min] | time of peak 5-HT level (rat NAcc microdialysis) [min] | peak 5-HT level (rat NAcc microdialysis) [%] | Serotonin (5-HT) level (% from baseline) (0 min (basal sample)) [%] | Serotonin (5-HT) level (% from baseline) (20 min post-admin) [%] | Serotonin (5-HT) level (% from baseline) (40 min post-admin) [%] | Serotonin (5-HT) level (% from baseline) (60 min post-admin) [%] | Serotonin (5-HT) level (% from baseline) (80 min post-admin) [%] | Serotonin (5-HT) level (% from baseline) (100 min post-admin) [%] | Serotonin (5-HT) level (% from baseline) (120 min post-admin) [%] | Serotonin (5-HT) level (% from baseline) (140 min post-admin) [%] | Serotonin (5-HT) level (% from baseline) (160 min post-admin) [%] | Serotonin (5-HT) level (% from baseline) (180 min post-admin) [%] | Serotonin (5-HT) level (% from baseline) (200 min post-admin) [%] | Serotonin (5-HT) level (% from baseline) (−20 min (basal sample)) [%] | Serotonin (5-HT) level (% from baseline) (180 min post-admin, 7 mg/kg) | peak 5-HT level (rat NAcc microdialysis, 7 mg/kg) |
| --- | --- | --- | --- | --- | --- | --- | --- | --- | --- | --- | --- | --- | --- | --- | --- | --- | --- |
| COC(=O)c1ccc2c(c1)CC(N)C2 (stereo not shown) [CMP-405, 2-aminoindane-5-methylcarboxylate] | 180 | 60 | 289 | 97 | 114 | 353 | 289 | 182 | 157 | 140 | 115 | 113 | 100 | 105 | 103 |  |  |
| CNC(C)Cc1ccc2c(c1)OCO2 (stereo not shown) [MDMA] |  | 60 | 2232 | 98 | 135 | 2000 | 2232 | 1780 | 1545 | 1472 | 1255 | 1083 |  | 871 | 102 | 980% and 972% |  |
| COc1ccc2c(c1)CC(N)C2 (stereo not shown) [MEAI, 5-methoxy-2-aminoindane] |  | 40 |  | 98 | 446 | 2365 | 2248 | 1391 | 1036 | 830 | 688 | 564 |  | 340 | 102 | 470% | 2365% and ~2500% |
